Measurements: patent publication US20060257543A1, “Molecules comprising linked organic moieties as flavor modifiers for comestible compositions” (priority 2005, published 2006)
Read-outs that look alike come from different tables or passages of the source.

Target: T1, hT1R2/hT1R3 sweet receptor expressed in an HEK293 cell line (Homo sapiens, UniProt Q7RTX0+Q8TE23)
T1 construct: expressed in transfected cells; host or cells: HEK293 derivative, clone S-9
T1 sequence (Q8TE23 20-839): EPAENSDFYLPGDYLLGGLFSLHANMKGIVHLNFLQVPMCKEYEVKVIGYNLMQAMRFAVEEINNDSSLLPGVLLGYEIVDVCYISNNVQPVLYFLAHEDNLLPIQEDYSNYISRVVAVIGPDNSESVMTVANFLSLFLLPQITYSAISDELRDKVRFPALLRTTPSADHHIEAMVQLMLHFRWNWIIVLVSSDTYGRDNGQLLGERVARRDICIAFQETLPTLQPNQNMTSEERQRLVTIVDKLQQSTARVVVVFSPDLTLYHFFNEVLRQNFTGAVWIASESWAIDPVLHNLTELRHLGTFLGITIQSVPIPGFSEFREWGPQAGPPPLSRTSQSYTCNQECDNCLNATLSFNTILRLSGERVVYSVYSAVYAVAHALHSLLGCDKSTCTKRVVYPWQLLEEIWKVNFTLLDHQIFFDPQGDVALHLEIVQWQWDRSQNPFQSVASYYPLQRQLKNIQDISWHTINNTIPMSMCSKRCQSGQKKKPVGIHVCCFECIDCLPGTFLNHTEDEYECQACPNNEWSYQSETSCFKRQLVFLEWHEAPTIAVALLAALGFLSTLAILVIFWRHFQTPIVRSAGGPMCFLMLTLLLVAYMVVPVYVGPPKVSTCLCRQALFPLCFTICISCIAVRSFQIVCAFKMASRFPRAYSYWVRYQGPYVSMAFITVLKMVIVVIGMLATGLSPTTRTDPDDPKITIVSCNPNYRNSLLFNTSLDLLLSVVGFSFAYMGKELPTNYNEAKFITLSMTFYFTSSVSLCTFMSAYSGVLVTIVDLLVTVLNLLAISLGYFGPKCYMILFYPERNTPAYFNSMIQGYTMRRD
T1 sequence (Q7RTX0 21-852): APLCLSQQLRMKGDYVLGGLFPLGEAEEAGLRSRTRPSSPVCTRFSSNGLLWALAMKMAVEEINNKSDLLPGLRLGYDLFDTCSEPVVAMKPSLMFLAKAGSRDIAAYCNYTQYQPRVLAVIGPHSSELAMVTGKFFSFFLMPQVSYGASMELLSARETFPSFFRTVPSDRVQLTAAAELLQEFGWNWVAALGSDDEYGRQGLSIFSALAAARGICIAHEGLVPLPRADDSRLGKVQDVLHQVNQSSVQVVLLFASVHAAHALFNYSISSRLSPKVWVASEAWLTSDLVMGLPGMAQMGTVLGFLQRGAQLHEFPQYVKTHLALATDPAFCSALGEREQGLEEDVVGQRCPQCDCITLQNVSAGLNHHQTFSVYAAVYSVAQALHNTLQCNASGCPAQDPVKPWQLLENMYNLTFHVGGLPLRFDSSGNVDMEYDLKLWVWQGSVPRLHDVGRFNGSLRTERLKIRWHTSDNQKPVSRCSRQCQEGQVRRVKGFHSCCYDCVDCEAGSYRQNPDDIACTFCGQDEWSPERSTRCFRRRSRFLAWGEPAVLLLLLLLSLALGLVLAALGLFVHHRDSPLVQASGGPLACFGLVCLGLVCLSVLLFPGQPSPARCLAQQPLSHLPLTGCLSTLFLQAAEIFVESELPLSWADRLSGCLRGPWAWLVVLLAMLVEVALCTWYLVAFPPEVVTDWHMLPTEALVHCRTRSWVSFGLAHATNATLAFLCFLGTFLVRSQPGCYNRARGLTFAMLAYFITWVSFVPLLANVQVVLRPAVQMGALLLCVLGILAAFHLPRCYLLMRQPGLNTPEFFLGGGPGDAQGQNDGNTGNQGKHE
Experiment: In vitro hT1R2/hT1R3 sweet taste receptor activation assay (FLIPR, dose response)
Format: cell-based
From the text: An HEK293 cell line derivative (see Chandrashekar, J., Mueller, K. L., Hoon, M. A., Adler, E., Feng, L., Guo, W., Zuker, C. S., Ryba, N. J.,. Cel,l 2000, 100, 703-711.) that stably expresses Gα15 and hT1R2/hT1R3 (see Li, X., Staszewski, L., Xu, H., Durick, K., Zoller, M., Adler, E. Proc Natl Acad Sci USA 2002, 99, 4692-4696, and PCT Publication No. WO 03/001876) was used to identify compounds with sweet taste enhancing properties. These references are hereby incorporated herein by reference for their methods of preparing and maintaing the cell lines discussed below, and for their methods for screeing compounds that inhibit the biological receptors.
Compounds covered in this document were initially selected based on their activity on the hT1R2/hT1R3—HEK293-Gα15 cell line (Li, et al. vide supra). Activity was determined using an automated fluorometric imaging assay on a FLIPR instrument (Fluorometric Intensity Plate Reader, Molecular Devices, Sunnyvale, Calif.) (designated FLIPR assay). Cells from one clone (designated S-9 cells) were seeded into 384-well plates (at approximately 50,000 cells per well) in a medium containing DMEM Low Glucose (Invitrogen, Carlsbad, Calif.), 10% dialyzed fetal bovine serum (Invitrogen, Carlsbad, Calif.), 100 Units/ml Penicillin G, and 100 μg/ml Streptomycin (Invitrogen, Carlsbad, Calif.) (Li, et al. vide supra) see also World Patent No. WO 03/001876 A2). S-9 cells were grown for 24 hours at 37° C. S-9 cells were then loaded with the calcium dye Fluo-3AM (Molecular Probes, Eugene, Oreg.), 4 μM in a phosphate buffered saline (D-PBS) (Invitrogen, Carlsbad, Calif.), for 1 hour at room temperature. After replacement with 25 μl D-PBS, stimulation was performed in the FLIPR instrument and at room temperature by the addition of 25 μl D-PBS supplemented with different stimuli at concentrations corresponding to twice the desired final level. Receptor activity was quantified by determining the maximal fluorescence increases (using a 480 nm excitation and 535 nm emission) after normalization to basal fluorescence intensity measured before stimulation.
For dose-responses analysis, stimuli were presented in duplicates at 10 different concentrations ranging from 60 nM to 30 μM. Activities were normalized to the response obtained with 400 mM D-fructose, a concentration that elicits maximum receptor response. EC50s were determined using a non-linear regression algorithm (using a Senomyx, Inc. software), where the Hill slope, bottom asymptotes and top asymptotes were allow to vary. Identical results were obtained when analyzing the dose-response data using commercially available software for non-linear regression analysis such as GraphPad PRISM (San Diego, Calif.).

[1] = read-out: EC50 for activation of a hT1R2/hT1R3 sweet receptor

EC50 (read-out: Sweet EC50) [nM] | EC50 [1] [nM] | SMILES
430 |  | CSc1ccc(NC(=S)NCc2ccc[nH]2)cc1 [Example B19]
5960 |  | CCCCc1ccc(NC(=S)NCc2ccc[nH]2)cc1 [Example B34]
4900 |  | COc1ccc(CNC(=S)NC(=O)c2ccccc2Cl)cc1 [Example B9]
410 |  | S=C(NCc1ccc[nH]1)Nc1ccc(SC2CC2)cc1 [Example B18]
1380 |  | CC(C)Oc1ccc(NC(=S)NCc2nccs2)cc1 [Example B3]
340 |  | CC(C)Oc1ccc(NC(=S)NCc2ccc[nH]2)cn1 [Example B12]
 | 120 | CC(C)Oc1ccc(NC(=S)NCc2cccs2)cc1 [Example 5, 1-(4-Isopropoxyphenyl)-3-(thiophen-2-ylmethyl)thiourea]
6710 |  | CC(C)Oc1ccc(NC(=S)NCc2cccnc2)cc1 [Example B35]
 | 2290 | COc1ccc(CNc2ccc(F)cc2C)cc1O [Example 13, 5-((4-fluoro-2-methylphenylamino)methyl)-2-methoxyphenol]
220 |  | CC(C)Oc1ccc(NC(=S)NCc2cccs2)cn1 [Example B11]
2180 |  | COc1c(S(=O)(=O)NCc2ccncc2)ccc(Cl)c1Cl [Example B45]
1890 |  | Cc1cc(CNC(=S)Nc2ccc(OC(C)C)cc2)no1 [Example B7]
 | 2320 | COc1ccc(CNc2c(F)cc(F)cc2F)cc1O [Example 15, 2-methoxy-5-((2,4,6-trifluorophenylamino)methyl)phenol]
1710 |  | CC(C)(C)c1ccc(NC(=S)NCc2ccc[nH]2)cc1 [Example B27]
6500 |  | O=S(=O)(NCc1ccncc1)c1ccc(F)cc1 [Example B42]
5190 |  | COc1ccc(NC(=S)NCc2ccc[nH]2)c(C)c1 [Example B32]
1880 |  | CCc1ccc(NC(=S)NCc2ccoc2)cc1 [Example B6]

The remaining lines, values behind:

SMILES | EC50 (read-out: Sweet EC50) [nM] | EC50 [1] [nM]
S=C(NCc1ccoc1)Nc1ccc2c(c1)OCO2 [Example B40] | 11600 | 
CCOc1ccc(NC(=S)NCc2ccc(C)o2)cc1 [Example B28] | 1910 | 
CC(C)Oc1ccc(NC(=S)NCc2ccco2)cc1 [Example 6, 1-(4-Isopropoxyphenyl)-3-(furan-2-ylmethyl)thiourea] |  | 550
CC(C)Oc1ccc(NC(=S)NCc2ccc[nH]2)cc1 [Example 19, 1-((1H-pyrrol-2-yl)methyl)-3-(4-isopropoxyphenyl)thiourea] |  | 25
CN(C)c1ccc(NC(=S)NCc2cccs2)cc1 [Example B25] | 1500 | 
CCOc1ccc(NC(=S)NCc2ccc[nH]2)cc1 [Example B10] | 160 | 
CCOc1ccc(NC(=S)NCc2ccco2)cc1 [Example 7, 1-(4-ethoxyphenyl)-3-(furan-2-ylmethyl)thiourea] |  | 1700
CC(C)Nc1ccc(NC(=S)NCc2ccc[nH]2)cc1 [Example B21] | 630 | 
CCCCOc1ccc(S(=O)(=O)Nc2cccnc2)cc1 [Example B46] | 2190 | 
FC(F)(F)c1ccc(NC(=S)NCc2ccc[nH]2)c(Cl)c1 [Example B22] | 670 | 
S=C(NCc1ccc[nH]1)Nc1ccc2c(c1)CCC2 [Example B23] | 790 | 
S=C(NCc1ccc[nH]1)Nc1ccc2c(c1)OCCO2 [Example B17] | 310 | 
C=CCOc1ccc(NC(=S)NCc2ccc[nH]2)cc1 [Example B14] | 160 | 
S=C(NCc1ccc[nH]1)Nc1ccc(N2CCOCC2)cc1 [Example B38] | 8170 | 
FC(F)(F)Oc1ccc(NC(=S)NCc2ccc[nH]2)cc1 [Example B20] | 590 | 
CC(C)c1ccc(NC(=S)NCc2ccoc2)cc1 [Example 10, 1-(furan-3-ylmethyl)-3-(4-isopropylphenyl)thiourea] |  | 750
S=C(NCc1cccs1)Nc1ccc(-n2cccn2)cc1 [Example B26] | 1530 | 
CCN(CC)c1ccc(NC(=S)NCc2ccoc2)cc1 [Example B8] | 4090 | 

SMILES | EC50 (read-out: Sweet EC50) [nM] | EC50 [1] [nM]
CC(C)COc1ccc(NC(=S)NCc2ccc[nH]2)cc1 [Example B33] | 5560 | 
COc1ccc(S(=O)(=O)Nc2ccc3nn(C)cc3c2)cc1 [Example B47] | 2940 | 
COc1ccc(Cl)cc1S(=O)(=O)NCc1ccco1 [Example B49] | 8000 | 
C#Cc1ccc(NC(=S)NCc2cccs2)cc1 [Example B36] | 7000 | 
CCC(C)Oc1ccc(NC(=S)NCc2ccco2)cc1 (stereo not shown) [Example 9, 1-(4-sec-Butoxy-phenyl)-3-furan-2-ylmethyl-thiourea] |  | 5300
COc1ccc(CNc2cc(C)ccc2C)cc1O [Example 17, 5-((2,5-dimethylphenylamino)methyl)-2-methoxyphenol] |  | 2580
COc1ccc(CNc2ccc(F)cc2F)cc1O [Example 14, 5-((2,4-difluorophenylamino)methyl)-2-methoxyphenol] |  | 2100
CC(=O)c1ccc(NC(=S)NCc2ccoc2)cc1 [Example B37] | 7450 | 
CC(C)Oc1ccc(NC(=S)NCc2ccno2)cc1 [Example B30] | 3860 | 
CCOc1ccc(NC(=S)NCc2ccoc2)cc1 [Example 8, 1-(4-ethoxyphenyl)-3-(furan-3-ylmethyl)thiourea] |  | 230
Cc1cc(C)c(S(=O)(=O)NCc2ccncc2)c(C)c1 [Example B43] | 760 | 
C=Cc1ccc(NC(=S)NCc2ccc[nH]2)cc1 [Example B24] | 870 | 
CC(C)Oc1ccc(NC(=S)NCc2ccncc2)cc1 [Example B41] | 14200 | 
CCOc1ccc(NC(=S)NCc2coc(C)c2)cc1 [Example B4] | 1440 | 
CCSc1ccc(NC(=S)NCc2ccc[nH]2)cc1 [Example B16] | 210 | 
COC(=O)c1ccc(NC(=S)NCc2cccs2)cc1 [Example B29] | 2940 | 
COC(=O)COc1ccc(S(=O)(=O)Nc2ccc3c(c2)OCCO3)cc1 [Example B48] | 7970 | 
